Experimental data reported in PMC12361428 (Nature Communications, 2025).
Substitutions are numbered along the chain they refer to. Several values for one entry are separate records, joined by “and”; a condition that tells them apart may be missing. Identical values can stand only once.

Tests used:
A3AR WT = biological target: T1, A3AR WT (Homo sapiens, UniProt P0DMS8); assay: Gαi1 activation, TruPath BRET assay in HEK293a cells; assay type: cell-based
T1 construct: expressed in transfected cells; host or cells: HEK293a
T1 sequence (P0DMS8 1-318): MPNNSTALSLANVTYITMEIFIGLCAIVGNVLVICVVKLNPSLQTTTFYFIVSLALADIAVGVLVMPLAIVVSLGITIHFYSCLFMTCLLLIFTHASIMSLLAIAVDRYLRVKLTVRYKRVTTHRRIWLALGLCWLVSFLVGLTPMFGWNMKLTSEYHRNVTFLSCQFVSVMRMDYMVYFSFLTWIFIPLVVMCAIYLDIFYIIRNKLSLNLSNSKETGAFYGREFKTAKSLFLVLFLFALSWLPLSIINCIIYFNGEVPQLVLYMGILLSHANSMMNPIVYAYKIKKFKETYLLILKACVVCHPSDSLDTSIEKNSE

A3AR Y15A^1.35 = biological target: T2, A3AR Y15A^1.35 (Homo sapiens, UniProt P0DMS8, Y15A); assay: as above; assay type: cell-based
T2 construct: expressed in transfected cells; host or cells: HEK293a
T2 sequence (P0DMS8 1-318 Y15A): T1 sequence (P0DMS8 1-318) with Y15A

A3AR T94A^3.36 = biological target: T3, A3AR T94A^3.36 (Homo sapiens, UniProt P0DMS8, T94A); assay: as above; assay type: cell-based
T3 construct: expressed in transfected cells; host or cells: HEK293a
T3 sequence (P0DMS8 whole entry T94A): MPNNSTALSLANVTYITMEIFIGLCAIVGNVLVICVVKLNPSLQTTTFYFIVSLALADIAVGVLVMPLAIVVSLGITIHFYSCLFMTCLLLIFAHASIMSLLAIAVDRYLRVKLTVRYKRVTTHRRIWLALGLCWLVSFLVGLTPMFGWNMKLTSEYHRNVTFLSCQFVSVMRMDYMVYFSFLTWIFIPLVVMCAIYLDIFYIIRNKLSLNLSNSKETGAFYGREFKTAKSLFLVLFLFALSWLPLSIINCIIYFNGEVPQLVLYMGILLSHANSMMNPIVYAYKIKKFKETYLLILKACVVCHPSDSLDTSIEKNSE

A3AR V169E^45.53 = biological target: T4, A3AR V169E^45.53 (Homo sapiens, UniProt P0DMS8, V169E); assay: as above; assay type: cell-based
T4 construct: expressed in transfected cells; host or cells: HEK293a
T4 sequence (P0DMS8 whole entry V169E): as the sequence (P0DMS8 whole entry T94A) above, with A94T, V169E counted along it

A3AR M174A^5.35 = biological target: T5, A3AR M174A^5.35 (Homo sapiens, UniProt P0DMS8, M174A); assay: as above; assay type: cell-based
T5 construct: expressed in transfected cells; host or cells: HEK293a
T5 sequence (P0DMS8 whole entry M174A): as the sequence (P0DMS8 whole entry T94A) above, with A94T, M174A counted along it

A3AR Y265A^7.36 = biological target: T6, A3AR Y265A^7.36 (Homo sapiens, UniProt P0DMS8, Y265A); assay: as above; assay type: cell-based
T6 construct: expressed in transfected cells; host or cells: HEK293a
T6 sequence (P0DMS8 whole entry Y265A): as the sequence (P0DMS8 whole entry T94A) above, with A94T, Y265A counted along it

A3AR N250A^6.55 = biological target: T7, A3AR N250A^6.55 (Homo sapiens, UniProt P0DMS8, N250A); assay: as above; assay type: cell-based
T7 construct: expressed in transfected cells; host or cells: HEK293a
T7 sequence (P0DMS8 1-318 N250A): T1 sequence (P0DMS8 1-318) with N250A

A3AR H272A^7.43 = biological target: T8, A3AR H272A^7.43 (Homo sapiens, UniProt P0DMS8, H272A); assay: as above; assay type: cell-based
T8 construct: expressed in transfected cells; host or cells: HEK293a
T8 sequence (P0DMS8 1-318 H272A): T1 sequence (P0DMS8 1-318) with H272A

A3AR H95A^3.37 = A3AR H95A^3.37 (Homo sapiens, UniProt P0DMS8, H95A); assay: as above
A3AR H95A^3.37, sequence (P0DMS8 whole entry H95A): as the sequence (P0DMS8 whole entry T94A) above, with A94T, H95A counted along it

A3AR-BRIL = biological target: T9, A3AR-BRIL (Homo sapiens, UniProt P0DMS8); assay: NanoBRET competition binding vs XAC-630; conditions: for XAC-630 NanoBRET binding, normalised (Figure S2H), individual replicates: A3AR-BRIL
T9 sequence (P0DMS8 1-318): T1 sequence (P0DMS8 1-318)

**Q.** With `Nc1ncnc2c1ncn2[C@@H]1O[C@H](CO)[C@@H](O)[C@H]1O` [Adenosine, adenosine] as the compound, how does the “log τ (efficacy, operational model, corrected for receptor expression)” value (from here on “log τ”) (A3AR WT) read?
**A.** 1.6 ± 0.2

**Q.** And the “∆∆BRET Emax” value (A3AR WT)?
**A.** 0.89 ± 0.08

**Q.** And the “Gαi1 activation response (Figure 7F), individual replicates” value (“Gαi1 activation response (Figure 7F)” below) (A3AR WT; log [agonist] -3)?
**A.** 1.106 and 0.8834 and 0.9675

**Q.** And the “Gαi1 activation response (Figure 7F)” value (A3AR WT; log [agonist] -4)?
**A.** 0.9524 and 0.7958 and 0.9068

**Q.** What about the “Gαi1 activation response (Figure 7F)” value (A3AR WT; log [agonist] -5) of the same compound?
**A.** 0.9676 and 0.6508 and 0.8035

**Q.** What about the “Gαi1 activation response (Figure 7F)” value (A3AR WT; log [agonist] -6) of the same compound?
**A.** 0.8382 and 0.5159 and 0.6976

**Q.** What about the “Gαi1 activation response (Figure 7F)” value (A3AR WT; log [agonist] -7) of the same compound?
**A.** 0.312 and 0.3966 and 0.3849

**Q.** And the “Gαi1 activation response (Figure 7F)” value (A3AR WT; log [agonist] -8)?
**A.** 0.0509 and 0.08839 and 0.07483

**Q.** And the “Gαi1 activation response (Figure 7F)” value (A3AR WT; log [agonist] -9)?
**A.** 0.1 and 0.05123 and 0.04435

**Q.** What about the “log τ” value (A3AR Y15A^1.35) of the same compound?
**A.** 0.6 ± 0.3

**Q.** What about the “∆∆BRET Emax” value (A3AR Y15A^1.35) of the same compound?
**A.** 0.19 ± 0.02

**Q.** And the “Gαi1 activation response (Figure 7F)” value (A3AR Y15A^1.35; log [agonist] -3)?
**A.** 0.171 and 0.1858 and 0.1817

**Q.** What about the “Gαi1 activation response (Figure 7F)” value (A3AR Y15A^1.35; log [agonist] -4) of the same compound?
**A.** 0.1266 and 0.1086 and 0.09084

**Q.** And the “Gαi1 activation response (Figure 7F)” value (A3AR Y15A^1.35; log [agonist] -5)?
**A.** 0.08727 and 0.0349 and 0.02463

**Q.** What about the “Gαi1 activation response (Figure 7F)” value (A3AR Y15A^1.35; log [agonist] -6) of the same compound?
**A.** 0.02891 and 0.02444 and 0.02972

**Q.** What about the “Gαi1 activation response (Figure 7F)” value (A3AR Y15A^1.35; log [agonist] -7) of the same compound?
**A.** 0.01513 and 0.03836 and 0.02349

**Q.** What about the “Gαi1 activation response (Figure 7F)” value (A3AR Y15A^1.35; log [agonist] -8) of the same compound?
**A.** 0.0199 and 0.02219 and 0.02387

**Q.** And the “Gαi1 activation response (Figure 7F)” value (A3AR Y15A^1.35; log [agonist] -9)?
**A.** 0.02702 and 0.04406 and 0.02415

**Q.** What about the “log τ” value (A3AR T94A^3.36) of the same compound?
**A.** 0.8 ± 0.09

**Q.** And the “∆∆BRET Emax” value (A3AR T94A^3.36)?
**A.** 0.49 ± 0.04

**Q.** What about the “log τ” value (A3AR V169E^45.53) of the same compound?
**A.** 1.6 ± 0.1

**Q.** What about the “∆∆BRET Emax” value (A3AR V169E^45.53) of the same compound?
**A.** 0.67 ± 0.02

**Q.** What about the “log τ” value (A3AR M174A^5.35) of the same compound?
**A.** -0.1 ± 0.2

**Q.** What about the “∆∆BRET Emax” value (A3AR M174A^5.35) of the same compound?
**A.** 1.35 ± 0.01

**Q.** And the “log τ” value (A3AR Y265A^7.36)?
**A.** 1.4 ± 0.07

**Q.** What about the “∆∆BRET Emax” value (A3AR Y265A^7.36) of the same compound?
**A.** 1.25 ± 0.04

**Q.** What about the “log τ” value (A3AR N250A^6.55) of the same compound?
**A.** N.R.

**Q.** What about the “∆∆BRET Emax” value (A3AR N250A^6.55) of the same compound?
**A.** N.R

**Q.** What about the “Gαi1 activation response (Figure 7F)” value (A3AR N250A^6.55; log [agonist] -3) of the same compound?
**A.** 0.1982 and 0.05834 and 0.1787

**Q.** What about the “Gαi1 activation response (Figure 7F)” value (A3AR N250A^6.55; log [agonist] -4) of the same compound?
**A.** 0.07983 and 0.02674 and 0.09536

**Q.** What about the “Gαi1 activation response (Figure 7F)” value (A3AR N250A^6.55; log [agonist] -6) of the same compound?
**A.** 0.1133 and 0.01975

**Q.** What about the “Gαi1 activation response (Figure 7F)” value (A3AR N250A^6.55; log [agonist] -7) of the same compound?
**A.** 0.04263 and 0.06697 and 0.05413

**Q.** What about the “Gαi1 activation response (Figure 7F)” value (A3AR N250A^6.55; log [agonist] -8) of the same compound?
**A.** 0.04211 and 0.09403 and 0.02948

**Q.** And the “Gαi1 activation response (Figure 7F)” value (A3AR N250A^6.55; log [agonist] -9)?
**A.** 0.09604 and 0.06365 and 0.0751

**Q.** And the “log τ” value (A3AR H272A^7.43)?
**A.** N.R.

**Q.** What about the “∆∆BRET Emax” value (A3AR H272A^7.43) of the same compound?
**A.** N.R

**Q.** What about the “Gαi1 activation response (Figure 7F)” value (A3AR H272A^7.43; log [agonist] -3) of the same compound?
**A.** 0.105 and 0.09941

**Q.** And the “Gαi1 activation response (Figure 7F)” value (A3AR H272A^7.43; log [agonist] -4)?
**A.** 0.06736 and 0.02567 and 0.03084

**Q.** And the “Gαi1 activation response (Figure 7F)” value (A3AR H272A^7.43; log [agonist] -5)?
**A.** 0.05631 and 0.02851 and 0.01939

**Q.** And the “Gαi1 activation response (Figure 7F)” value (A3AR H272A^7.43; log [agonist] -6)?
**A.** 0.03915 and 0.06464 and 0.04347

**Q.** And the “Gαi1 activation response (Figure 7F)” value (A3AR H272A^7.43; log [agonist] -7)?
**A.** 0.04202 and 0.01796 and 0.03024

**Q.** And the “Gαi1 activation response (Figure 7F)” value (A3AR H272A^7.43; log [agonist] -8)?
**A.** 0.03672 and 0.03614 and 0.07396

**Q.** What about the “Gαi1 activation response (Figure 7F)” value (A3AR H272A^7.43; log [agonist] -9) of the same compound?
**A.** 0.03473 and 0.04344 and 0.05169

**Q.** And the “log τ” value (A3AR H95A^3.37)?
**A.** 0.3 ± 0.3

**Q.** What about the “∆∆BRET Emax” value (A3AR H95A^3.37) of the same compound?
**A.** 0.63 ± 0.12

**Q.** How did the “pKi Mean (Figure S2H)” value (A3AR-BRIL; BRIL, n 3) turn out when `CCCn1c(=O)c2c(nc3cc(OC)ccn32)n(CCCCNC(=O)c2ccc(S(=O)(=O)F)cc2)c1=O` [LUF7602] was run?
**A.** 6.94

**Q.** What about the “XAC-630 NanoBRET binding, normalised (Figure S2H), individual replicates” value (from here on “XAC-630 NanoBRET binding, normalised”) (A3AR-BRIL; log LUF7602 -5) of the same compound?
**A.** 0

**Q.** And the “XAC-630 NanoBRET binding, normalised” value (A3AR-BRIL; log LUF7602 -6)?
**A.** 22.1463 and 17.4094 and 21.7431

**Q.** And the “XAC-630 NanoBRET binding, normalised” value (A3AR-BRIL; log LUF7602 -7)?
**A.** 61.493 and 91.0533 and 82.952

**Q.** And the “XAC-630 NanoBRET binding, normalised” value (A3AR-BRIL; log LUF7602 -8)?
**A.** 66.0931 and 109.671 and 102.784

**Q.** What about the “XAC-630 NanoBRET binding, normalised” value (A3AR-BRIL; log LUF7602 -9) of the same compound?
**A.** 71.5361 and 107.819 and 104.301

**Q.** And the “XAC-630 NanoBRET binding, normalised” value (A3AR-BRIL; log LUF7602 -10)?
**A.** 72.9226 and 106.236 and 100.479
